What was measured:
[1] = tested on: ABC1; settings: cited from earlier work
[2] = tested on: ABC1 mRNA; assay: ABC1 mRNA upon cholesterol loading; assay type: cell-based
[3] = target: ABC1 (Homo sapiens, UniProt O95477); settings: cited from earlier work
[4] = tested on: cholesterol efflux; settings: cited from earlier work

ABC1 (Homo sapiens, UniProt O95477), sequence (O95477 whole entry): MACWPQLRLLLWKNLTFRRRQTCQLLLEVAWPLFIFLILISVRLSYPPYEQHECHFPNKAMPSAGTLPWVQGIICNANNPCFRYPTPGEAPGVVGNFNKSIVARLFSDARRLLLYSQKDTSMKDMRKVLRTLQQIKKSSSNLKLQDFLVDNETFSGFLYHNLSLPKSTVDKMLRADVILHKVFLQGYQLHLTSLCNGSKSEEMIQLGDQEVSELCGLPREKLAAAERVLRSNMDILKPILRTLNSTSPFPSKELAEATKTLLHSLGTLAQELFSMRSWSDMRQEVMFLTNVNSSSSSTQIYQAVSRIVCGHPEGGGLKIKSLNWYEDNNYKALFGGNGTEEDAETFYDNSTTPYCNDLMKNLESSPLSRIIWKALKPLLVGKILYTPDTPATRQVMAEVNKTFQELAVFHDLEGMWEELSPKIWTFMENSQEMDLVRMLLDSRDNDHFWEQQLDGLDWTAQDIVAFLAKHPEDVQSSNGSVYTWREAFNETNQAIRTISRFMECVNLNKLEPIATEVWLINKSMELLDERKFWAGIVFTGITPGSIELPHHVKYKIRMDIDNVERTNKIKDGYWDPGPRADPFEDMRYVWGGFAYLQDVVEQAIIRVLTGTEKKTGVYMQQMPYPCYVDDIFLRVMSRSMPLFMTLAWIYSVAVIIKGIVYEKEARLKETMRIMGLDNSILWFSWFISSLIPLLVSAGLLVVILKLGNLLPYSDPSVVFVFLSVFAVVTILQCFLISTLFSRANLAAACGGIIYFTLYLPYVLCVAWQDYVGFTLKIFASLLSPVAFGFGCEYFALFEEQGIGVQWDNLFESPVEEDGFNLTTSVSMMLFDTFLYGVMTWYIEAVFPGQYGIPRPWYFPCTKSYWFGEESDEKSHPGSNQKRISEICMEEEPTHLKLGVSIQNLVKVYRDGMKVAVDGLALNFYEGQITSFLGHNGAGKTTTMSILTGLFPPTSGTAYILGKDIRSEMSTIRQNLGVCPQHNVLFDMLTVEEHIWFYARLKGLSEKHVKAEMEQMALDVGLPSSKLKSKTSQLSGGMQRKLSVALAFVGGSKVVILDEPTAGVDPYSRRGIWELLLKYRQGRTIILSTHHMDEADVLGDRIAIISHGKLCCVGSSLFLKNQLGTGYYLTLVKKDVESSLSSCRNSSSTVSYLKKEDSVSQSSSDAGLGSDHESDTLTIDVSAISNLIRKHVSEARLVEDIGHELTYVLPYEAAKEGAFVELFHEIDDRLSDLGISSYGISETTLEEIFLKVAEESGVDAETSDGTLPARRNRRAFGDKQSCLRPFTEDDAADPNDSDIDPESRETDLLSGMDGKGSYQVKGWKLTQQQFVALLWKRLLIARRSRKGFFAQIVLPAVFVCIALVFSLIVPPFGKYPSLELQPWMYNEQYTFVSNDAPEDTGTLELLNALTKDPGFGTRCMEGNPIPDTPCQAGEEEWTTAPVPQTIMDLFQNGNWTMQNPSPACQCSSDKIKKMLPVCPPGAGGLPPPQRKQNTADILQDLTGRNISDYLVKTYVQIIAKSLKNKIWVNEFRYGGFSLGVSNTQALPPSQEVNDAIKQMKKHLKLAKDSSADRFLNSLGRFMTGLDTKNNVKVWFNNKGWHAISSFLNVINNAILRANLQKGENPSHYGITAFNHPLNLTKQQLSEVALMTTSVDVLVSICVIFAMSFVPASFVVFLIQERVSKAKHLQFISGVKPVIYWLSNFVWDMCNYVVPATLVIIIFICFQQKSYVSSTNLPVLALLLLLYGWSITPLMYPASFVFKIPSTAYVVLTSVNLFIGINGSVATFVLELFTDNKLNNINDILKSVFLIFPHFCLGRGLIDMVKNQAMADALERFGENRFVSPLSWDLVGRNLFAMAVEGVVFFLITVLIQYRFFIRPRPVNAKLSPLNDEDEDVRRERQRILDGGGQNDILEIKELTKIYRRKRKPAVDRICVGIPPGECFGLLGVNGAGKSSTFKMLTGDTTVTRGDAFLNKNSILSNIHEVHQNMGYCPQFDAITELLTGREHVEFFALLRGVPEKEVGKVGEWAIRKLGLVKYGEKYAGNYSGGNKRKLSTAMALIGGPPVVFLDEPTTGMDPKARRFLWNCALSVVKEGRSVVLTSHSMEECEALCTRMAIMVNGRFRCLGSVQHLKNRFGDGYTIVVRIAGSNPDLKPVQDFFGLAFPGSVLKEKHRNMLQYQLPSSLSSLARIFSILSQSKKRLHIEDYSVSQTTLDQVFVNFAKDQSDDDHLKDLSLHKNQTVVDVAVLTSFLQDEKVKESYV

Row | SMILES | inhibition of ABC1 [1] | upregulation of ABC1 expression or biological activity [3] | other results
1 | O=C1OC(c2ccc(O)c(S(=O)(=O)O)c2)(c2ccc(O)c(S(=O)(=O)O)c2)c2c(Br)c(Br)c(Br)c(Br)c21 [sulfobromophthalein] | inhibit |  | 
2 | O=C(O)c1ccccc1Nc1ccccc1 [diphenylamine-2-carbonic acid] | inhibit |  | 
3 | CC(C)CCC[C@@H](C)[C@H]1CC[C@H]2[C@@H]3CC=C4C[C@@H](O)CC[C@]4(C)[C@H]3CC[C@]12C [cholesterol] |  |  | increase of ABC1 mRNA [2]: approximately 8 fold
4 | O=S(=O)(O)c1cc(N=C=S)ccc1C=Cc1ccc(N=C=S)cc1S(=O)(=O)O [DIDS] | inhibit |  | 
5 | C=C1[C@@H](O)[C@@H]2O[C@]3(CC[C@H](/C=C/[C@@H](C)[C@@H]4CC(C)=C[C@@]5(O[C@H](C[C@@](C)(O)C(=O)O)CC[C@H]5O)O4)O3)CC[C@H]2O[C@@H]1[C@@H](O)C[C@H](C)[C@H]1O[C@@]2(CCCCO2)CC[C@H]1C [okadaic acid] |  | upregulate | 
6 | CC(C)Cn1c(=O)n(C)c(=O)c2[nH]cnc21 [IBMX1] |  | upregulate | 
7 | C[C@H]1CCC/C=C/[C@@H]2C[C@H](O)C[C@H]2[C@H](O)/C=C/C(=O)O1 [Brefeldin] |  |  | cholesterol efflux [4]: significantly inhibits cholesterol efflux
8 | [O]=[V]([O-])([O-])[O-] [vanadate] |  | upregulate | 
9 | O=C(O)c1ccccc1Nc1cccc(C(F)(F)F)c1 [flufenamic acid] | inhibit |  | 
10 | COc1ccc(Cl)cc1C(=O)NCCc1ccc(S(=O)(=O)NC(=O)NC2CCCCC2)cc1 [glibenclamide] | inhibit |  | 
